# Results taken from patent EP3820512B1, “IMMUNOMODULATING COMPOSITIONS COMPRISING OLIGOSACCHARIDE DERIVATIVES” (priority 2018, dated 2020).
# Key:
# [1] = biological target: TLR4 (Homo sapiens, UniProt O00206); test: TLR4 inhibitory and activating activity in THP-1 cells at low and high concentrations; format: cell-based; parameters: endogenous in cells; host or cells: THP-1 (human monocytic) cells; details: for % activation over control TLR4 / % inhibition over control TLR4: THP-1 cells
# [2] = biological target: T1, TLR2 (Homo sapiens, UniProt O60603); test: TLR2 activity in PMA-stimulated THP-1 monocyte cells, ELISA of cell lysate; format: cell-based; details: THP-1 cells
# T1 construct: endogenous in cells; host or cells: THP-1 monocyte cells stimulated with PMA
# Protocol: THP-1 monocyte cells (1×10^5) were stimulated with 200nM of PMA for 48h and treated with different concentrations of test compounds. The TLR2 activity was measured after 24 h from the cell lysate using ELISA.
# [3] = system: THP-1 (human monocytic) cells; test: Cytokine response (IL-1β, TNF-α, IL-10) of THP-1 cells treated with compounds; format: cell-based; details: 100-200 µM
# Protocol: When THP-1 (human monocytic) cells were treated with 100-200 µM of compounds 8, 14, 17, 23, 29, and 32, they produced an increased IL-1β and TNF-α response, decreased anti-inflammatory cytokine IL-10 (FIG. 4).
# [4] = system: normal lung epithelial cells (AT-1); format: cell-based, human; details: 1 mM and 2 mM, 48h, trypan blue
# Protocol: The cells were treated with compounds and incubated for 48h.
# [5] = system: human peripheral blood monocytes; test: IL-10 production in human peripheral blood monocytes; format: cell-based; details: after 48 h
# [6] = system: HUVECs; test: Cytotoxicity in HUVECs, MTT cell proliferation kit; format: cell-based, human; details: 100 µM, 24h
# Protocol: Selected TLR2/4 antagonist compounds 2, 6, 7, 8, 14, 17 and 32 were evaluated for cytotoxicity in HUVECs at 100 µM concentration. The cells were treated with compounds and incubated for 24h. Cell viability was assessed using MTT cell proliferation kit (Promega). All the compounds were not toxic to HUVECs (FIG. 15).
# [7] = system: VEGF induced tube formation in HUVECs; test: Anti-angiogenic activity, Tube Formation kit, VEGF induced; format: cell-based, human; details: VEGF 100ng/mL
# Protocol: Selected TLR2/4 antagonist compounds 2, 6, 7, 8, 14, 17 and 32 were evaluated for anti-angiogenic activity using the Tube Formation kit (Cat#3470-096-K). VEGF (100ng/mL) was used as positive control. These compounds have potential applications in diseases associated with pathological angiogenesis such as solid tumor, […], diabetic retinopathy as well as AMD.
# [8] = system: hPBMC; test: Cytotoxicity in hPBMC, MTT cell proliferation kit; format: cell-based, human; details: 0.1, 1.0, 10, 100 and 1000 µM, 24h
# Protocol: The cells were treated with compounds and incubated for 24h. Cell viability was assessed using MTT cell proliferation kit (Promega).
# [9] = system: hyperoxia induced BPD in mouse pups; test: Hyperoxia-exposed BPD mouse model (newborn pups); format: in vivo
# Text: Neonatal mice and humans undergo similar stages of lung development but differ with respect to the duration of each stage and its temporal relationship to gestational age. The lungs of the mouse born at term are in the saccular stage and are surfactant sufficient; this can be considered somewhat akin to a human preterm neonate in the same stage of lung development that has been exposed to a full complement of antenatal steroids (which is known to enhance surfactant production). In terms of mimicking the human condition, the most successful hyperoxia models are those that limit exposure to hyperoxia to the saccular stage of pulmonary development. The mouse BPD model involves exposing newborn mice (postnatal day 1 or PN1) to 100% oxygen till PN4 followed by recovery in room air (RA) for another 10 days.
# After the recovery period, their lungs were harvested and processed for quantitative PCR, western blotting, histopathology and ELISA.
# After the recovery period, their lungs were harvested and processed for quantitative PCR, western blotting and histopathology and ELISA.
# BPD is characterized by large simplified alveoli, inflammation, increased cell death, decreased cell proliferation, dysmorphic capillary configuration, and variable interstitial cellularity and/or fibroproliferation. […] This is determined by measuring the alveolar chord length, septal thickness and radial alveolar count (RAC). In BPD, the alveolar area increases which is characterized by increase in the diameter of the alveolar sacs, the septa become thickened (thus interfering in gaseous exchange) and the RAC, a parameter used to assess the complexity of terminal respiratory unit by pulmonologists, decreases as a result of arrested lung development.
# [10] = system: P. aeruginosa (ATCC-10145 GFP) infected skin wounds; test: Murine study of skin wound infection; format: in vivo, C57BL6 mice
# Protocol: Five groups of C57BL/6 mice (8-10 weeks old, n = 4) were wounded on the dorsal surface. 25µl containing 10^6 CFU/mL P. aeruginosa in a PBS suspension were pipetted onto the wound and allowed to absorb for at least 3 min. […] Subsequently and for the next 13 days, infected wounds were treated each alternate day with colistin, or with test compounds.
# Along with that less focal inflammation is observed in compound treated groups vs PA group.
# T1 sequence (O60603 21-784): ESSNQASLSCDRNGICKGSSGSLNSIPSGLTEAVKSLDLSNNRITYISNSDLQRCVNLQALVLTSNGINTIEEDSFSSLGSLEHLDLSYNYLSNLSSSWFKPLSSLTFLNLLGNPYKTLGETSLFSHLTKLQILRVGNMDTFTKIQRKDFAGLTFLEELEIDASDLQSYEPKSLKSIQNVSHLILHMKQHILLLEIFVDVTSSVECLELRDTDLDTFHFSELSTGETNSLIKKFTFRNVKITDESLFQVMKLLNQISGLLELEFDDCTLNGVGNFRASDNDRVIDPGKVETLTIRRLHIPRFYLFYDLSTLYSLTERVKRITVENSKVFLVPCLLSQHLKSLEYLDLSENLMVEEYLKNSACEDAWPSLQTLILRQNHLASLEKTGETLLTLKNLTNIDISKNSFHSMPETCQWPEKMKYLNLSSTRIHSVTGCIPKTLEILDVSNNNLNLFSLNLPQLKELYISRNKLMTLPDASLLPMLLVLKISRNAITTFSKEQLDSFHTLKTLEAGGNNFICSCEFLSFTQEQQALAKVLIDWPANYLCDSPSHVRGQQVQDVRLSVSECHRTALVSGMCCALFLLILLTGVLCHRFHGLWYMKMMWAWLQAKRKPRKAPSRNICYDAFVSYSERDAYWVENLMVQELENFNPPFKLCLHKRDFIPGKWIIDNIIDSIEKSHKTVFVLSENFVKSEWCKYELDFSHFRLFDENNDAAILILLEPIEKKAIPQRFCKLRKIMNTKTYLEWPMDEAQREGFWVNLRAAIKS
# TLR4, sequence (O00206 24-839): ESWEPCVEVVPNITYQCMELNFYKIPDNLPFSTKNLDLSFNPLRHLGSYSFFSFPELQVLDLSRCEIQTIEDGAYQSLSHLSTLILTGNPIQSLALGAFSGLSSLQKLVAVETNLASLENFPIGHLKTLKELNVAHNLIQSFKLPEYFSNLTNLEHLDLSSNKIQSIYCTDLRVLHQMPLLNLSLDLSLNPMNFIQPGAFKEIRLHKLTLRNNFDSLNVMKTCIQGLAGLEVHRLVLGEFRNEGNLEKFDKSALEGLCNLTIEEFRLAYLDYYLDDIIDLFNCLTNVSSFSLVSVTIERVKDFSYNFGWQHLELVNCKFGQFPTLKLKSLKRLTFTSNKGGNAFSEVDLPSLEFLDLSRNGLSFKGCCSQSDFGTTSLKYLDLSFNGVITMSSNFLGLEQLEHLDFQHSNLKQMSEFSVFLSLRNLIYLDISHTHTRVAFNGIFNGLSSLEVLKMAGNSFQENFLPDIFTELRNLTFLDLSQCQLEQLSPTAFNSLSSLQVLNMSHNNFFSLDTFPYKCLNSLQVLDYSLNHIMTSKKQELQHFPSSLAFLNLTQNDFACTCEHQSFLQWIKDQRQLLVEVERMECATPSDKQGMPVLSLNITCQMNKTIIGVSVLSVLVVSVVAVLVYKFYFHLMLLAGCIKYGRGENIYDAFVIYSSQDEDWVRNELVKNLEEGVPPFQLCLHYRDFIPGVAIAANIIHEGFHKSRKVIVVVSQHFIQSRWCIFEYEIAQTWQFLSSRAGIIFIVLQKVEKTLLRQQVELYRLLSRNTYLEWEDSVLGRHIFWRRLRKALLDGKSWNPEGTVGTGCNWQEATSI
# TLR4, sequence (Q9Y6Y9 17-160 partner limits assumed): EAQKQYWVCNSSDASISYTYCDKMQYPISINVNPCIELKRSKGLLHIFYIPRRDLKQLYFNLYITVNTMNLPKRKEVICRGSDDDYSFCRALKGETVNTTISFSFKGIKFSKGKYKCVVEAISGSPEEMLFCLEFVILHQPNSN
Compound,% activation over control TLR4 ([1]; Concentration 75-100 µM),IL-1β response [3],TNF-α response [3],anti-inflammatory cytokine IL-10 [3],cytotoxicity in normal lung epithelial cells (AT-1) [4],cytotoxicity in HUVECs (cell viability) [6],VEGF induced tube formation [7],% inhibition over control TLR2 ([2]; Concentration 1-10 µM),% inhibition over control TLR2 ([2]; Concentration 75-100 µM),cytotoxicity in hPBMC (cell viability) [8],also measured
"CC(=O)NC1[C@H](Oc2ccc3c(C)cc(=O)oc3c2)O[C@H](CO)[C@@H](O)[C@@H]1O (single isomer, unassigned) [Compound 29]",+ (+ means that the % of inhibition or activation is in the range of 15-25%),increased,increased,decreased,not toxic,–,–,–,–,–,% activation over control TLR2 ([2]; Concentration 1-10 µM): ++ (++ means that the % of inhibition or activation is in the range of 25-75%); % activation over control TLR2 ([2]; Concentration 75-100 µM): + (+ means that the % of inhibition or activation is in the range of 15-25%)
"CC(=O)NC1[C@H](Oc2ccc(B3OC(C)(C)C(C)(C)O3)cc2)O[C@H](CO)[C@@H](O)[C@@H]1O (single isomer, unassigned) [Compound 32, p-Pinacoloneboronatephenyl 2-acetamido-2-deoxy-β-D-glucopyranoside]",–,increased,increased,decreased,–,not toxic,significantly decreased,+++ (+++ means that the % of inhibition or activation is in the range of 75-95%),+ (+ means that the % of inhibition or activation is in the range of 15-25%),not toxic,"IL-10 production ([5]; 0.1-1.0 µM): increase; IL-10 production ([5]; 10-100 µM): decrease; % inhibition over control TLR4 ([1]; Concentration 1-10 µM): +++ (+++ means that the % of inhibition or activation is in the range of 75-95%); % inhibition over control TLR4 ([1]; Concentration 75-100 µM): +++ (+++ means that the % of inhibition or activation is in the range of 75-95%); TLR4 modulatory activity ([1]; summary in words): concentration dependent TLR4 modulatory activity; TLR2/4 antagonist activity ([1]; summary in words, as shown in Table-1 (FIG. 1), TLR2 and TLR4): potent TLR2/4 antagonists; TLR4 inhibition in vivo ([9]; neonatal pups with BPD): inhibit; lung architecture ([9]; saline (IV) and nanosuspension (IN) formulation): restored"
"CC(=O)N[C@H]1[C@H](Oc2ccc3nonc3c2)O[C@H](CO)[C@@H](O)[C@H]1O (stereo in doubt) [Compound 17, N-((2S,3R,4S,5S,6R)-2-(benzo[c][1,2,5]oxadiazol-5-yloxy)-4,5-dihydroxy-6-(hydroxymethyl)tetrahydro-2H-pyran-3-yl)acetamide]",++ (++ means that the % of inhibition or activation is in the range of 25-75%),increased,increased,decreased,–,not toxic,significantly decreased,++ (++ means that the % of inhibition or activation is in the range of 25-75%),+++ (+++ means that the % of inhibition or activation is in the range of 75-95%),not toxic,–
"CC(=O)O[C@H]1C(=O)[C@@]2(C)[C@H]([C@H](OC(=O)c3ccccc3)[C@]3(O)C[C@H](OC(=O)[C@H](O)[C@@H](NC(=O)c4ccccc4)c4ccccc4)C(C)=C1C3(C)C)[C@]1(OC(C)=O)CO[C@@H]1C[C@@H]2O [Taxol, reference compound]",–,–,–,–,toxic,–,–,–,–,–,–
colistin [reference compound],–,–,–,–,–,–,–,–,–,–,"Re-epithelialization and granulation tissue ([10]; H&E histology, day 13 post-injury, vs controls, p=0.050 (Colistin, compound 1), p=0.073 (compound 8)): significantly enhanced; closure of P. aeruginosa infected skin wounds ([10]; topical, each alternate day, day 13, compounds 100µM / 100µg /ml, Colistin 4µg/ml): complete closure"
